Biological target: T1, human GlyT1c transporter (Homo sapiens, UniProt P48067)
T1 construct: expressed in transfected cells; host or cells: CHO cells (recombinant; line hGlyT1c_5_CHO is named for the uptake assay)
T1 sequence (P48067 1-706): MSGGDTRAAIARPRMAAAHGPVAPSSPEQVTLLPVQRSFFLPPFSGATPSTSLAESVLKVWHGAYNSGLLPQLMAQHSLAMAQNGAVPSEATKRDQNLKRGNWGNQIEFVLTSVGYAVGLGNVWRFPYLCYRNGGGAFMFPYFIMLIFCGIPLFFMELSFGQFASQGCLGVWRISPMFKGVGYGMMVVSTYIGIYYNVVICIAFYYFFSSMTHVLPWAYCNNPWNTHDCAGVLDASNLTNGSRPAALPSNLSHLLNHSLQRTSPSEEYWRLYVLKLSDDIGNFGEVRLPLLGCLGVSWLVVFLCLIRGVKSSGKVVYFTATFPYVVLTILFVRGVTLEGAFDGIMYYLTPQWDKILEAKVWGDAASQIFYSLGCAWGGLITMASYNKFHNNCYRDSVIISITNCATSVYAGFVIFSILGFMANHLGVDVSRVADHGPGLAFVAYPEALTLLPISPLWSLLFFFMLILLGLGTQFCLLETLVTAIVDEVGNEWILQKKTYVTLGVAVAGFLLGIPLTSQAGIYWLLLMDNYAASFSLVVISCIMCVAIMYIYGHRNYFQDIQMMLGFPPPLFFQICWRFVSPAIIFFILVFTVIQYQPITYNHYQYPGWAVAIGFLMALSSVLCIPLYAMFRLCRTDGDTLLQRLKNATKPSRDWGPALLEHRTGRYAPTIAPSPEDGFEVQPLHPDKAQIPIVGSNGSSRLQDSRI
Assay: Radioligand binding assay using recombinant CHO cell membranes expressing human GlyT1
Settings: radioligand binding to human GlyT1c transporter-expressing membranes
Description: 2. Radioligand binding assays using recombinant CHO cell membranes expressing human GlyT1: […]

Compound | Ki [µM]
Cn1cnc(S(=O)(=O)N2C[C@@H](CNc3ccc(F)c(Cl)c3)[C@H](c3ccc(F)cc3)C2)c1 (relative stereo) [Example 314, 3-chloro-4-fluoro-N-({trans-4-(4-fluorophenyl)-1-[(1-methyl-1H-imidazol-4-yl)sulfonyl]pyrrolidin-3-yl}methyl)aniline] | ≤ 1
Cn1cnc(S(=O)(=O)N2C[C@@H](NCc3ccc(C(F)(F)F)cc3Cl)[C@H](c3ccccn3)C2)c1 (relative stereo) [Example 320, trans-N-[2-chloro-4-(trifluoromethyl)benzyl]-1-[(1-methyl-1H-imidazol-4-yl)sulfonyl]-4-(pyridin-2-yl)pyrrolidin-3-amine] | ≤ 0.01
Cn1cnc(S(=O)(=O)N2C[C@@H](CNc3ccc(C(F)(F)F)cc3Cl)[C@H](c3ccc(F)cc3)C2)c1 (relative stereo) [Example 332, 2-Chloro-N-({trans-4-(4-fluorophenyl)-1-[(1-methyl-1H-imidazol-4-yl)sulfonyl]pyrrolidin-3-yl}methyl)-4-(trifluoromethyl)aniline] | ≤ 0.1
Cc1cccc(NC[C@@H]2CN(S(=O)(=O)c3cn(C)cn3)C[C@H]2c2ccc(F)cc2)c1 (relative stereo) [Example 334, N-({Trans-4-(4-fluorophenyl)-1-[(1-methyl-1H-imidazol-4-yl)sulfonyl]pyrrolidin-3-yl}methyl)-3-methylaniline] | ≤ 1
Cn1cnc(S(=O)(=O)N2C[C@@H](CNc3cccc(C(F)(F)F)c3)[C@H](c3ccc(F)cc3)C2)c1 (relative stereo) [Example 335, N-({Trans-4-(4-fluorophenyl)-1-[(1-methyl-1H-imidazol-4-yl)sulfonyl]pyrrolidin-3-yl}methyl)-3-(trifluoromethyl)aniline] | ≤ 1
Cn1cnc(S(=O)(=O)N2C[C@@H](COc3cc(C(F)(F)F)ncn3)[C@H](c3ccc(F)cc3)C2)c1 (relative stereo) [Example 336, 4-({Trans-4-(4-fluorophenyl)-1-[(1-methyl-1H-imidazol-4-yl)sulfonyl]pyrrolidin-3-yl}methoxy)-6-(trifluoromethyl)pyrimidine] | ≤ 1
Cn1cnc(S(=O)(=O)N2C[C@@H](Nc3cccc(C(F)(F)F)c3)[C@H](C3CC3)C2)c1 (relative stereo) [Example 337, Trans-4-cyclopropyl-1-[(1-methyl-1H-imidazol-4-yl)sulfonyl]-N-[3-(trifluoromethyl)phenyl]pyrrolidin-3-amine] | ≤ 1
Cn1cnc(S(=O)(=O)N2C[C@@H](Nc3cccc(Cl)c3)[C@H](C3CC3)C2)c1 (relative stereo) [Example 338, Trans-N-(3-chlorophenyl)-4-cyclopropyl-1-[(1-methyl-1H-imidazol-4-yl)sulfonyl]pyrrolidin-3-amine] | ≤ 1
Cn1cnc(S(=O)(=O)N2C[C@@H](Nc3cccc(C(F)(F)F)c3)[C@H](c3ccccn3)C2)c1 (relative stereo) [Example 344, trans-1-[(1-methyl-1H-imidazol-4-yl)sulfonyl]-4-(pyridin-2-yl)-N-[3-(trifluoromethyl)phenyl]pyrrolidin-3-amine] | ≤ 0.1
Cn1cnc(S(=O)(=O)N2C[C@@H](Nc3cccc(Cl)c3)[C@H](c3ccccn3)C2)c1 (relative stereo) [Example 345, Trans-N-(3-chlorophenyl)-1-[(1-methyl-1H-imidazol-4-yl)sulfonyl]-4-(pyridin-2-yl)pyrrolidin-3-amine] | ≤ 0.1
Cn1cnc(S(=O)(=O)N2C[C@@H](COc3cc(C(F)(F)F)ccn3)[C@H](c3ccc(F)cc3)C2)c1 (relative stereo) [Example 346, 2-({Trans-4-(4-fluorophenyl)-1-[(1-methyl-1H-imidazol-4-yl)sulfonyl]pyrrolidin-3-yl}methoxy)-4-(trifluoromethyl)pyridine] | ≤ 1

Other lines, results leading:

Ki [µM] | Compound
≤ 1 | Cn1cnc(S(=O)(=O)N2C[C@@H](CNCc3ccccc3)[C@H](c3ccc(F)cc3)C2)c1 (relative stereo) [Example 315, N-benzyl-1-{trans-4-(4-fluorophenyl)-1-[(1-methyl-1H-imidazol-4-yl)sulfonyl]pyrrolidin-3-yl}methanamine]
≤ 1 | Cc1cccc(NC(=O)[C@@H]2CN(S(=O)(=O)c3cn(C)cn3)C[C@H]2c2ccc(F)cc2)c1 (relative stereo) [Example 316, trans-4-(4-fluorophenyl)-1-[(1-methyl-1H-imidazol-4-yl)sulfonyl]-N-(3-methylphenyl)pyrrolidine-3-carboxamide]
≤ 1 | Cn1cnc(S(=O)(=O)N2C[C@@H](C(=O)Nc3cccc(C(F)(F)F)c3)[C@H](c3ccc(F)cc3)C2)c1 (relative stereo) [Example 317, Trans-4-(4-fluorophenyl)-1-[(1-methyl-1H-imidazol-4-yl)sulfonyl]-N-[3-(trifluoromethyl)phenyl]pyrrolidine-3-carboxamide]
≤ 1 | Cn1cnc(S(=O)(=O)N2C[C@@H](COc3ccc(F)c(Cl)c3)[C@H](c3ccc(F)cc3)C2)c1 (relative stereo) [Example 318, 4-{[Trans-3-[(3-chloro-4-fluorophenoxy)methyl]-4-(4-fluorophenyl)pyrrolidin-1-yl]sulfonyl}-1-methyl-1H-imidazole]
≤ 1 | Cn1cnc(S(=O)(=O)N2C[C@@H](CNc3cccc(Cl)c3)[C@H](c3ccc(F)cc3)C2)c1 (relative stereo) [Example 333, 3-Chloro-N-({trans-4-(4-fluorophenyl)-1-[(1-methyl-1H-imidazol-4-yl)sulfonyl]pyrrolidin-3-yl}methyl)aniline]
≤ 10 | Cn1cnc(S(=O)(=O)N2C[C@@H](Nc3ccc(C#N)c(F)c3)[C@H](c3ccc(F)cc3)C2)c1 (relative stereo) [Example 342, 2-fluoro-4-({trans-4-(4-fluorophenyl)-1-[(1-methyl-1H-imidazol-4-yl)sulfonyl]pyrrolidin-3-yl}amino)benzonitrile]
≤ 10 | Cn1cnc(S(=O)(=O)N2C[C@@H](C(=O)Nc3cccc(C#N)c3)[C@H](c3ccc(F)cc3)C2)c1 (relative stereo) [Example 347, Trans-N-(3-cyanophenyl)-4-(4-fluorophenyl)-1-[(1-methyl-1H-imidazol-4-yl)sulfonyl]pyrrolidine-3-carboxamide]
≤ 0.1 | Cn1cnc(S(=O)(=O)N2C[C@@H](COc3ccc(F)cc3)[C@H](c3ccc(F)cc3)C2)c1 (relative stereo) [Example 348, 4-{[Trans-3-[(4-fluorophenoxy)methyl]-4-(4-fluorophenyl)pyrrolidin-1-yl]sulfonyl}-1-methyl-1H-imidazole]
≤ 1 | Cn1cnc(S(=O)(=O)N2C[C@@H](C(=O)c3ccc(F)c(F)c3)[C@H](c3ccc(F)cc3)C2)c1 (relative stereo) [Example 357, (3,4-Difluorophenyl){trans-4-(4-fluorophenyl)-1-[(1-methyl-1H-imidazol-4-yl)sulfonyl]pyrrolidin-3-yl}methanone]
≤ 0.1 | Cn1cnc(S(=O)(=O)N2C[C@@H](C(=O)Nc3ccc(F)cc3)[C@H](c3ccc(F)cc3)C2)c1 (relative stereo) [Example 358, Trans-N,4-bis(4-fluorophenyl)-1-[(1-methyl-1H-imidazol-4-yl)sulfonyl]pyrrolidine-3-carboxamide]
≤ 1 | Cn1cnc(S(=O)(=O)N2C[C@@H](C(=O)c3ccc(Cl)c(Cl)c3)[C@H](c3ccc(F)cc3)C2)c1 (relative stereo) [Example 359, (3,4-Dichlorophenyl){trans-4-(4-fluorophenyl)-1-[(1-methyl-1H-imidazol-4-yl)sulfonyl]pyrrolidin-3-yl} methanone]
≤ 1 | Cn1cnc(S(=O)(=O)N2C[C@@H](C(=O)c3cc(F)cc(Cl)c3)[C@H](c3ccc(F)cc3)C2)c1 (relative stereo) [Example 361, (3-Chloro-5-fluorophenyl){trans-4-(4-fluorophenyl)-1-[(1-methyl-1H-imidazol-4-yl)sulfonyl]pyrrolidin-3-yl} methanone]
≤ 0.1 | Cn1cnc(S(=O)(=O)N2C[C@@H](C(=O)c3ccc(OC(F)(F)F)cc3)[C@H](c3ccc(F)cc3)C2)c1 (relative stereo) [Example 363, {Trans-4-(4-fluorophenyl)-1-[(1-methyl-1H-imidazol-4-yl)sulfonyl]pyrrolidin-3-yl}[4-(trifluoromethoxy)phenyl]methanone]
≤ 10 | Cn1cnc(S(=O)(=O)N2C[C@@H](CNc3cccc(C(N)=O)c3)[C@H](c3ccc(F)cc3)C2)c1 (relative stereo) [Example 364, 3-[({Trans-4-(4-fluorophenyl)-1-[(1-methyl-1H-imidazol-4-yl)sulfonyl]pyrrolidin-3-yl}methyl)amino]benzamide]
≤ 10 | Cn1cnc(S(=O)(=O)N2C[C@@H](CNc3cccc(CN)c3)[C@H](c3ccc(F)cc3)C2)c1 (relative stereo) [Example 365, 3-(Aminomethyl)-N-({Trans-4-(4-fluorophenyl)-1-[(1-methyl-1H-imidazol-4-yl)sulfonyl]pyrrolidin-3-yl}methyl)aniline]

— EP2970215B1, “PYRROLIDINE DERIVATIVES, PHARMACEUTICAL COMPOSITIONS CONTAINING THEM, AND THEIR USE IN THERAPY” (AbbVie Deutschland GmbH & Co. KG, priority 2013, dated 2014)
